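Following 48 hours of exposure in 96-well plates, responses at five concentrations were used to interpolate endpoints linearly. GI50 is the concentration that inhibits growth by half.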 Activity calls are given as the source filed them. Rule as the data show it: active = GI50 up to about 1.1 µM and inactive = higher.
Tests used:
Assay in all cases: growth of human tumour cells (NCI), 48 h
[1] = tested on: OVCAR-8
[2] = tested on: EKVX
[3] = tested on: HOP-92
[4] = tested on: PC-3
[5] = tested on: SF-268
[6] = tested on: SK-MEL-28
[7] = tested on: SF-539
[8] = tested on: Malme-3M
[9] = tested on: HT-29
[10] = tested on: SR
[11] = tested on: NCI/ADR-RES
[12] = tested on: OVCAR-3
[13] = tested on: 786-0
[14] = tested on: ACHN
[15] = tested on: DU-145
[16] = tested on: U-251
[17] = tested on: K562
[18] = tested on: OVCAR-4
[19] = tested on: M14
[20] = tested on: MCF7
[21] = tested on: NCI-H23
[22] = tested on: LOX IMVI
[23] = tested on: MDA-N
[24] = tested on: SNB-19
[25] = tested on: KM12
[26] = tested on: RPMI-8226
[27] = tested on: A498
[28] = tested on: MOLT-4
[29] = tested on: IGROV-1
[30] = tested on: UO-31
[31] = tested on: UACC-257
[32] = tested on: A549
[33] = tested on: CCRF-CEM
[34] = tested on: Hs-578T
[35] = tested on: COLO 205
[36] = tested on: SK-MEL-2
[37] = tested on: OVCAR-5
[38] = tested on: HCT-116
[39] = tested on: NCI-H226
[40] = tested on: MDA-MB-435
[41] = tested on: SK-MEL-5
[42] = tested on: SW-620
[43] = tested on: SN12C
[44] = tested on: MDA-MB-231
[45] = tested on: HOP-62
[46] = tested on: SF-295
[47] = tested on: TK-10
[48] = tested on: UACC-62
[49] = tested on: HCT-15
[50] = tested on: SK-OV-3
[51] = tested on: SNB-75

CCCC(=O)Oc1cc(OC(=O)CCC)c2c(C)cc(=O)oc2c1
GI50 [1]: 75.7 µM (inactive) | GI50 [2]: > 100 µM (inactive) | GI50 [3]: 19.6 µM (inactive) | GI50 [4]: 76.2 µM (inactive) | GI50 [5]: > 100 µM (inactive) | GI50 [6]: > 100 µM (inactive) | GI50 [7]: 21.8 µM (inactive) | GI50 [8]: 76.6 µM (inactive) | GI50 [9]: 36.5 µM (inactive) | GI50 [10]: 18.5 µM (inactive) | GI50 [11]: > 100 µM (inactive) | GI50 [12]: 50 µM (inactive) | GI50 [13]: 82.6 µM (inactive) | GI50 [14]: > 100 µM (inactive) | GI50 [15]: > 100 µM (inactive) | GI50 [16]: 78.3 µM (inactive) | GI50 [17]: 44.9 µM (inactive) | GI50 [18]: > 100 µM (inactive) | GI50 [19]: > 100 µM (inactive) | GI50 [20]: 54.5 µM (inactive) | GI50 [21]: 71 µM (inactive) | GI50 [22]: 40.1 µM (inactive) | GI50 [23]: 62.2 µM (inactive) | GI50 [24]: > 100 µM (inactive) | GI50 [25]: 32.5 µM (inactive) | GI50 [26]: 32.2 µM (inactive) | GI50 [27]: 46.1 µM (inactive) | GI50 [28]: 29 µM (inactive) | GI50 [29]: 44.1 µM (inactive) | GI50 [30]: 39.6 µM (inactive) | GI50 [31]: 83.6 µM (inactive) | GI50 [32]: 92.9 µM (inactive) | GI50 [33]: 31.9 µM (inactive) | GI50 [34]: 48.4 µM (inactive) | GI50 [35]: 40 µM (inactive) | GI50 [36]: > 100 µM (inactive) | GI50 [37]: > 100 µM (inactive) | GI50 [38]: 50.1 µM (inactive) | GI50 [39]: 87.7 µM (inactive) | GI50 [40]: 58.6 µM (inactive) | GI50 [41]: 67.9 µM (inactive) | GI50 [42]: 49.9 µM (inactive) | GI50 [43]: > 100 µM (inactive) | GI50 [44]: > 100 µM (inactive) | GI50 [45]: > 100 µM (inactive) | GI50 [46]: 78.7 µM (inactive) | GI50 [47]: > 100 µM (inactive) | GI50 [48]: 66.1 µM (inactive) | GI50 [49]: > 100 µM | GI50 [50]: > 100 µM (inactive) | GI50 [51]: 52.4 µM (inactive)

From ChEMBL document CHEMBL1201862, “PubChem BioAssay data set” (2004)
